From patent US4794114A, “Inhibition of interleukin-1 production by monocytes and/or macrophages” (SmithKline Beckman Corporation, priority 1987, dated 1988)
Where two headings read alike, the source gives them in different places.

Key:
[1] = test system: IL-1 production by human monocytes; experiment: in vitro IL-1 production by LPS-stimulated human peripheral blood monocytes (EL-4 readout); format: cell-based; settings: for inhibition at 1 µM / inhibition at 10 µM / inhibition at 0.1 µM / IC50: Homo sapiens, Monocyte; for inhibition at 1 µM: 10^-6 M; for inhibition at 10 µM: 10^-5 M; for inhibition at 0.1 µM: 10^-7 M; for IC50: 1 ng/ml LPS, 1 hr pretreatment
Method: The effects of antiinflammatory/antiarthritic drugs of different classes, including Compound 1 on the in vitro production of IL-1 by human monocytes was examined.
(§1) Bacterial lipopolysaccharide (LPS) was used to induce IL-1 production by human peripheral blood monocytes. IL-1 activity was measured by its ability to stimulate a Interleukin 2 (IL-2) producing cell line (EL-4) to secrete IL-2, in concert with A23187 ionophore, according to the method of Simon et al., J. Immunol. Methods, 84, 85, (1985). Human peripheral blood monocytes were isolated and purified from either fresh blood preparations from volunteer donors, or from blood Bank buffy coats, according to the procedure of Colotta et al., J. Immunol., 132, 936 (1984). 1×10^6 of such monocytes are plated in 24-well plates at a concentration of 2 million/ml per well. The cells were allowed to adhere for 2 hours, after which time non-adherent cells were removed by gentle washing. Test compounds were then added to the cells for 1 hour (hr) before the addition of lipopolysaccharide (10 ng/ml unless otherwise noted), and the cultures were incubated at 37° C. for an additional 24 hours. At the end of the incubation period, culture supernatants were removed and clarified of cells and all debris. Culture supernatants were immediately assayed for IL-1 biological activity as well as prostaglandin and/or leukotriene concentrations by radioimmunoassay.
^(a) All compounds, except chloroquine, were dissolved in absolute
ethanol at 10^-2 M, which was subsequently diluted further in tissue
assay system at doses tested. Furthermore, test samples were dialyzed
prior to testing in the IL1 assay.
In order to elucidate the mechanism by which Compound 1 mediates its anti-inflammatory activity, the ability of this compound and two closely related analog metabolites, (i.e., the analogs of Compound 1 wherein X is S(0)n and n is 1 or 2) to inhibit human IL-1 production in vitro was evaluated according to the method of Example 1. Briefly, 1×10^6 human peripheral blood monocytes were plated in 24-well plates and allowed to adhere for 1 hr at 37° C. The above compounds were added to a final concentration of 10^-5 M to 10^-8 M. The monocytes were stimulated to produce IL-1 with 1 ng/ml LPS after a 1 hr pretreatment of the cells with the respective compounds.
The inhibitory effect of additional compounds of Formula (I) on the in vitro production of IL-1 production of IL-1 by human monocytes was determined according to the procedure of Examples 1 and 2.

[2] = test system: endotoxin shock in C57B1/6 mice; format: in vivo, mouse; settings: for protection from lethal effects of LPS/GALN: mouse, in vivo
Method: (§2) Mice are very resistant to the lethal effects of bacterial lipopolysaccharides (LPS). D-Galactosamine (D-GALN) induces a high degree of sensitization to the lethal effects of LPS in mice and other experimental animals. [See, Galanos et al., Proc. Natl. Acad Sci. USA., 76, 5939 (1979)]. In mice, depending on the strain and age, the sensitivity to endotoxin can be increased many thousand-fold.
A number of preliminary experiments were carried out to establish this model of lethal endotoxin shock.

in vitro = format: cell-based, human; settings: human, peripheral blood monocytes
Method: as §1
^(b) At doses at or above 10^-5 M, this compound exerted some

PGE2 = experiment: in vitro prostaglandin (PGE2) synthesis by LPS-stimulated human monocytes, RIA; format: cell-based; settings: for inhibition at 10 µM / inhibition at 1 µM / inhibition at 0.1 µM: Homo sapiens, Monocyte, read-out: % Inhibition PGE2; for inhibition at 10 µM: 10^-5 M; for inhibition at 1 µM: 10^-6 M; for inhibition at 0.1 µM: 10^-7 M
Method: as §1
^(c) PGE2 was assayed using an RIA kit.

C57B1/6 mice = experiment: lethality of LPS in D-galactosamine treated C57B1/6 mice; format: in vivo, mouse; settings: for Lethality, No. of Death/Total No.: D-Galactosamine 500 mg/kg i.v.
Method: as §2
A number of preliminary experiments were carried out to establish this model of lethal endotoxin shock. LPS concentrations of up to 1 mg/mouse are not lethal in C57B1/6 mice. When injected i.v. with D-GALN (500 mg/kg), however, the sensitivity increases so that 0.1 ug becomes a lethal dose (Table 5). The concentration of D-GALN required to obtain this effect is 400-500 mg/kg.
All compounds were administered i.v.

[3] = test system: IL-1 production by splenic adherent cells; experiment: adjuvant-induced arthritis in the rat: IL-1 production by LPS-stimulated splenic adherent cells; format: in vivo; settings: for effect in adjuvant arthritic rats: short-term treatment; for IL-1 Production (splenic adherent cells), % normal control: mg/kg: Compound 1 60, indomethacin 2.0, prednisolone 10, methotrexate 0.3, D-penicillamine 50
Method: (§3) Adjuvant-induced arthritis in the rat is a model of systemic inflammation with characteristics similar to rheumatoid arthritis in man. […] This model was employed to assess the effect of Compound 1 in vivo on this elevated IL-1 production. Briefly, rats were injected on day 0 with Freund's complete adjuvant in the right hind leg. Drugs were prepared as a suspension in tragacanth and administered daily per os either prophylactically (days 1 to 16) or therapeutically in a short-term modality (days 14 to 16). In all cases, final administration of drug occurred at 3 hours prior to sacrifice. Spleens were removed from these rats and the adherent cells were assessed for their ability to produce IL-1 in vitro in response to stimulation by LPS.
(§4) PROPHYLACTIC TREATMENT: Drugs were administered daily p.o. as a suspensio
(§5) in tragacanth from day 1 to day 16. Final dose given 3 hrs before
(§6) TREATMENT: Drugs were administered daily p.o. as above from
(§7) day 14 to day 16. Final dose given 3 hrs before sacrifice.
(§8) ***P < 0.01 Indomethacin 2.0 mg/kg
(§9) **P < 0.05 Compound 1 60 mg/kg
(§10) *P < 0.10 Prednisolone 10 mg/kg
(§11) D-Penicillamine 50 mg/kg

[4] = test system: adjuvant-induced arthritis in the rat; experiment: adjuvant-induced arthritis in the rat: right leg paw edema; format: in vivo; settings: mg/kg: Compound 1 60, indomethacin 2.0, prednisolone 10, methotrexate 0.3, D-penicillamine 50
Method: as §3, §4, §5, §6, §7, §8, §9, §10, §11

splenic adherent cells = experiment: adjuvant-induced arthritis in the rat: % splenic adherent cells; format: in vivo; settings: mg/kg: Compound 1 60, indomethacin 2.0, prednisolone 10, methotrexate 0.3, D-penicillamine 50
Method: as §3, §4, §5, §6, §7, §8, §9, §10, §11

[5] = Table 3, read-out: % Inhibition @ 10^-6 M
[6] = prophylactic, daily p.o. days 1-16
[7] = therapeutic, daily p.o. days 14-16

Fc1ccc(-c2c(-c3ccncc3)nc3n2CCS3)cc1 [Compound 4]
inhibition at 1 µM [1, 5]: 46%

Fc1ccc(-c2nc3n(c2-c2ccncc2)CCC3)cc1 [Compound 5]
inhibition at 1 µM [1, 5]: 78%
protection from lethal effects of LPS/GALN [2]: protective effects

CC(Cc1ccc(O)c(O)c1)C(C)Cc1ccc(O)c(O)c1 (stereo not drawn) [NDGA, nordihydroguaiaretic acid]
viability at 24 h, 10 µM (in vitro): ~50%
inhibition of IL-1 production [1]: marginally active in inhibition of IL-1 production
inhibition at 10 µM ([1]; read-out: % Inhibition IL-1): 88%
inhibition at 1 µM ([1]; read-out: % Inhibition IL-1): 33%
inhibition at 0.1 µM ([1]; read-out: % Inhibition IL-1): 31%
inhibition of prostaglandin synthesis (PGE2): little inhibitory effect on prostaglandin synthesis
inhibition at 10 µM (PGE2): 25%
inhibition at 1 µM (PGE2): 0%
inhibition at 0.1 µM (PGE2): 0%

CC(C)Cc1ccc(C(C)C(=O)O)cc1 (stereo not drawn) [Ibuprofen, ibuprofen]
inhibition of IL-1 production [1]: virtually no effect on IL-1 production
inhibition at 10 µM ([1]; read-out: % Inhibition IL-1): 9%
inhibition at 1 µM ([1]; read-out: % Inhibition IL-1): 0%
inhibition at 0.1 µM ([1]; read-out: % Inhibition IL-1): 0%
inhibition of prostaglandin synthesis (PGE2): highly active in inhibiting prostaglandin synthesis
inhibition at 10 µM (PGE2): 97%
inhibition at 1 µM (PGE2): 71%
inhibition at 0.1 µM (PGE2): 63%

[O-][S+]1CCn2c1nc(-c1ccc(F)cc1)c2-c1ccncc1 (stereo not drawn) [Compound 2]
IC50 [1]: 800 nM
inhibition at 1 µM [1, 5]: 56%

O=S1(=O)CCn2c1nc(-c1ccc(F)cc1)c2-c1ccncc1 [Compound 3]
IC50 [1]: 610 nM
inhibition at 1 µM [1, 5]: 54%

COc1ccc(-c2nc3n(c2-c2ccncc2)CCCC3)cc1 [Compound 8]
inhibition at 1 µM [1, 5]: 30%

N[C@H]1C(O)O[C@H](CO)[C@H](O)[C@@H]1O (stereo partly drawn) [D-Galactosamine]
Lethality, No. of Death/Total No. (C57B1/6 mice; 6 Hr.): 0/10
Lethality, No. of Death/Total No. (C57B1/6 mice; 24 Hr.): 0/10
D-GALN concentration required to sensitize to LPS (C57B1/6 mice; with LPS, i.v.): 400 to 500 mg/kg

COc1ccc(-c2nc3n(c2-c2ccncc2)CCS3)cc1 [Compound 6]
inhibition at 1 µM [1, 5]: 64%

CC(=O)OC[C@H]1O[C@@H]([S-])[C@H](OC(C)=O)[C@@H](OC(C)=O)[C@@H]1OC(C)=O.CCP(CC)CC.[Au+] [auranofin]
effect in adjuvant arthritic rats ([3]; therapeutic): no effect

CN/C(=N/CCSCc1nc[nH]c1C)NC#N [cimetidine]
protection from lethal effects of LPS/GALN [2]: not

O=C1CCN(c2ccccc2)N1 [Phenidone, phenidone]
inhibition of IL-1 production [1]: marginally active in inhibition of IL-1 production
inhibition at 1 µM ([1]; read-out: % Inhibition IL-1): 18%
inhibition at 0.1 µM ([1]; read-out: % Inhibition IL-1): 0%
inhibition of prostaglandin synthesis (PGE2): little inhibitory effect on prostaglandin synthesis
inhibition at 1 µM (PGE2): 0%
protection from lethal effects of LPS/GALN [2]: protective effects

C[C@@H]1C[C@H]2[C@@H]3CCC4=CC(=O)C=C[C@]4(C)[C@@]3(F)[C@@H](O)C[C@]2(C)[C@@]1(O)C(=O)CO [Dexamethasone]
protection ([2]; administered 24 hours and 1 hour prior to LPS/GALN): provided protection

COc1ccc(-c2nc3n(c2-c2ccncc2)CCC3)cc1 [Compound 7]
inhibition at 1 µM [1, 5]: 40%

COc1ccc2c(c1)c(CC(=O)O)c(C)n2C(=O)c1ccc(Cl)cc1 [INDOMETHACIN, indomethacin]
IL-1 Production (splenic adherent cells), % normal control [3, 6]: 274 ± 100 % normal control
IL-1 Production (splenic adherent cells), % normal control [3, 7]: 330 ± 121 % normal control
effect in adjuvant arthritic rats ([3]; therapeutic): no effect
Right leg paw edema, % normal control [4, 6]: 113 ± 8 % normal control
Right leg paw edema, % normal control [4, 7]: 145 ± 18 % normal control
% Adherent Cells (splenic), % normal control (splenic adherent cells; [6]): 480 ± 189 % normal control
% Adherent Cells (splenic), % normal control (splenic adherent cells; [7]): 394 ± 253 % normal control

CC(C)(S)[C@@H](N)C(=O)O [D-PENICILLAMINE, d-penicillamine]
IL-1 Production (splenic adherent cells), % normal control [3, 6]: 336 ± 170 % normal control
IL-1 Production (splenic adherent cells), % normal control [3, 7]: 374 % normal control
effect in adjuvant arthritic rats ([3]; therapeutic): no effect
Right leg paw edema, % normal control [4, 6]: 184 ± 20 % normal control
Right leg paw edema, % normal control [4, 7]: 191 ± 13 % normal control
% Adherent Cells (splenic), % normal control (splenic adherent cells; [6]): 372 ± 117 % normal control
% Adherent Cells (splenic), % normal control (splenic adherent cells; [7]): 217 ± 6 % normal control

CN(Cc1cnc2nc(N)nc(N)c2n1)c1ccc(C(=O)N[C@@H](CCC(=O)O)C(=O)O)cc1 [METHOTREXATE, methotrexate]
IL-1 Production (splenic adherent cells), % normal control [3, 6]: 67 ± 56 % normal control
IL-1 Production (splenic adherent cells), % normal control [3, 7]: 436 ± 178 % normal control
effect in adjuvant arthritic rats ([3]; therapeutic): no effect
Right leg paw edema, % normal control [4, 6]: 96 ± 4 % normal control
Right leg paw edema, % normal control [4, 7]: 194 ± 2 % normal control
% Adherent Cells (splenic), % normal control (splenic adherent cells; [6]): 134 ± 10 % normal control
% Adherent Cells (splenic), % normal control (splenic adherent cells; [7]): 284 ± 175 % normal control

C[C@]12C=CC(=O)C=C1CC[C@@H]1[C@@H]2[C@@H](O)C[C@@]2(C)[C@H]1CC[C@]2(O)C(=O)CO [PREDNISOLONE, Prednisolone]
IL-1 Production (splenic adherent cells), % normal control [3, 6]: 168 ± 40 % normal control
IL-1 Production (splenic adherent cells), % normal control [3, 7]: 300 ± 280 % normal control
Right leg paw edema, % normal control [4, 6]: 125 ± 22 % normal control
Right leg paw edema, % normal control [4, 7]: 147 ± 18 % normal control
% Adherent Cells (splenic), % normal control (splenic adherent cells; [6]): 184 ± 79 % normal control
% Adherent Cells (splenic), % normal control (splenic adherent cells; [7]): 82 ± 47 % normal control
